We go through 4 molecules from patent US12577262B2, “Functionalized gold carbene napthaquinone complexes for use in the treatment of cancer” (Board of Regents, The University of Texas System, priority 2019, dated 2026).

Experiment [1] has as its system A549 human lung cancer cell line. As to the kind of experiment: Cell proliferation MTT assay, Example 4 (Table 8). It is filed as cell-based. Particulars: 72 h treatment, max DMSO 0.1%.
In a further experiment the test system is A549 lung cancer cells. As to the kind of experiment: Cell proliferation, 72 h IC50 (Table 3). It is filed as cell-based, human. Particulars: read-out: 72 h IC50, 3-5 separate experiments.
Another experiment deals with 2780CP Ovarian. Put plainly: Cell proliferation, 72 h IC50 (Table 3). Particulars: read-out: 72 h IC50, 3-5 separate experiments. It is filed as cell-based, human.
A further experiment has as its system A2780 Ovarian. Put plainly: Cell proliferation, 72 h IC50 (Table 3). It is filed as cell-based, human. Conditions: read-out: 72 h IC50, 3-5 separate experiments.
For experiment [2], the system named is CT26 mouse colorectal cancer cells. Conditions: immunized with CT26 cells treated with oxaliplatin at 150 μM; challenged after 7 days.
Another experiment concerns HCT116 Colon. As to the kind of experiment: Cell proliferation, 72 h IC50 (Table 3). Particulars: read-out: 72 h IC50, 3-5 separate experiments. It is filed as cell-based, human.
Another experiment concerns CT26 Colon. Conditions: read-out: 72 h IC50, 3-5 separate experiments.
A further experiment deals with Panc-02 cells. Put plainly: CRT translocation to the cell membrane, flow cytometry (percent CRT+ cells). It is filed as cell-based, murine. Background: Flow cytometry measures light scatter and fluorescence of single cells or particles in a stream.
In experiment [3] the test system is A549 human lung cancer cell line. Put plainly: Cell proliferation MTT assay, Example 3 (Table 5). It is filed as cell-based. Conditions: 72 h incubation. On the procedure:
According to previous literature reports, BSA binding can reduce the cytotoxicity of Au(I) bis-NHC complexes (Zou et al., 2014). […] The non-conjugated alcohol 1 and Auranofin were used as benchmark comparisons. Incubation was carried out for 72 h in all cases. […] A549 cells were harvested and seeded into 96-well culture plates (Costar 07-200-90) in 100 μL of culture medium. The cells were allowed to incubate overnight at 37° C. in the presence of 5% CO2. A549 cells were seeded at a density of 1500 cells/well. […] To each well of a 96 well plate was added 100 μL of the appropriate solution. […] After removal of the medium, the resulting formazan was dissolved in […] DMSO and the respective absorbances were measured at 560-650 nm using a microplate reader (Molecular Devices, Sunnyvale, CA). Absorbance values were corrected for background and then normalized to wells containing untreated cells to allow for plate-to-plate comparisons. The resulting dose response curves were subjected to linear regression analysis (Origin by OriginLab, Inc.) for determination of IC50 values. […] Maximum concentration of DMSO used is 0.1%. This concentration of DMSO was determined to be non-toxic in separate control experiments. […] The stock solution was further diluted 10-fold in RPMI media such that the maximum drug concentration used was 10 μM for the dose dependent MTT assay.
A general note: Tetrazolium dyes change colour on reduction, which living cells bring about.

In the next experiment the test system is L929 fibroblasts. As to the kind of experiment: Cell proliferation, 72 h IC50 (Table 3). Format: cell-based, human. The text has this:
The initial rationale for preparing complexes 1-3 (shown below) involved a systems approach to circumventing the antioxidant network that helps give solid tumors their resiliency.

pIC50: −log10 of the molar value. Counter-ions that a name gives are not always drawn.

Procedure for Panc-02 cells: Calreticulin (CRT) translocation from the ER to the cell membrane is a critical mechanistic step in ICD induction. To correlate the findings of ER and mitochondrial stress to ICD induction, murine cancer cell lines (Panc-02 pancreas and CT26 colon) were treated with 3 and assessed for cell membrane CRT translocation (FIG. 4).

The molecule `COc1cccc2c1C(=O)c1c(O)c3c(c(O)c1C2=O)C[C@@](O)(C(=O)CO)C[C@@H]3O[C@H]1C[C@H](N)[C@H](O)[C@H](C)O1` [Doxorubicin•HCl, Doxorubicin] had a pIC50 in experiment [1] (Homo sapiens) of 6.88.
On to `N.N.[Cl][Pt][Cl]` [Cisplatin], for which the results for the pIC50 in the experiment with A549 lung cancer cells, in the experiment with 2780CP Ovarian and with A2780 Ovarian were 5.99, 5.15 and 6.48, respectively.
Consider `O=C1[O][Pt]2([NH][C@@H]3CCCC[C@H]3[NH]2)[O]C1=O` [Oxaliplatin], for which the pIC50 is 6.01 in the experiment on A549 lung cancer cells; 6.52 in the experiment with 2780CP Ovarian; 6.30 in the experiment on HCT116 Colon; 5.70 in the experiment on CT26 Colon; 6.82 in the experiment on A2780 Ovarian. Further, the “mice remaining tumor-free at the end of the study” value in [2] stood at 80%. Moreover, the “concentration needed to achieve the same CRT+ signal” value in the experiment on Panc-02 cells (same CRT+ signal as 3 at 1 μM) is 300 µM.
In the case of `CC(=O)OC[C@H]1O[C@@H]([S-])[C@H](OC(C)=O)[C@@H](OC(C)=O)[C@@H]1OC(C)=O.CCP(CC)CC.[Au+]` [Auranofin], the pIC50 was 5.78 in the experiment with A549 lung cancer cells; 5.89 in the experiment with HCT116 Colon; 5.65 in [3]; 5.38 in the experiment on L929 fibroblasts (read-out: 72 h IC50, L929 Fibroblasts, 72 h, 3-5 separate experiments); 5.66 in [1]. Besides, the cancer selectivity in the experiment with L929 fibroblasts (L929 fibroblasts in comparison to A549 lung cancer cells) amounted to 2.5 fold. For the same molecule, the “CRT translocation to the cell membrane” value in the experiment with Panc-02 cells (flow cytometry, 3 at 1 μM, auranofin under the same conditions) is on record as “ineffective”.

A word on the pIC50: it is the IC50 on a negative log10 scale, so that one unit is a factor of ten.
